In patent US6811970B2, “Assay for identifying inhibitors of HIV RT dimerization” (priority 2001, dated 2004):

Legend:
[1] = target: HIV-1 RT p66/p51 heterodimer (Human immunodeficiency virus type 1 group M subtype B, UniProt P04585, C625S/C867S/P588C); test: TRF microplate assay of p66/p51 RT heterodimer formation; conditions: compound at 10 μM; dimer formation 6 h; urea diluted 3.5 M to 0.35 M
Protocol: The general principle of the assay involves mixing of His6x-p51 with fluorophore-labeled p66 RT in solution, with subsequent solid-phase capture of resulting His6x-p51/fluorophore-labeled p66 RT heterodimer on Ni^2+-NTA microplates. After washing to remove unbound material, the amount of microplate-associated fluorescence is measured in an appropriate fluorescence plate reader.
In a total volume of 20 μl, mix 100 pmol of purified His6x-p51 RT subunit and 200 pmol of Eu-N1-iodoacetamido chelate labeled p66 RT subunit (i.e., 100 pmol RT p66/p66 homodimer) with urea (prepared in 25 mM Tris-HCl pH 7.5, 20° C., containing 100 mM MgCl2) to provide a final concentration of 3.5 M urea. Incubate this mixture for 1 h at room temperature.
Dilute this solution into 200 μL of a solution of the compound of interest at 10 μM (in 25 mM Tris-HCl pH 7.5, 20° C., containing 50 mM Na2SO4) contained in a well of a 96-well Ni-NTA HiSorb Plate.
The dilution step provides a 10-fold dilution to reduce the urea concentration from 3.5M to 0.35M, thereby allowing formation of the RT p66/p51 heterodimer. Dimer formation is allowed to proceed for 6 h, then the plates are washed 3× with Delfia wash buffer containing 200 μM DTPA. After washing, 200 μL of the Delfia enhancement solution is added to each well, followed by incubation at room temperature for 30 minutes.

HIV-1 RT = HIV-1 RT (Human immunodeficiency virus type 1 group M subtype B, UniProt P04585); conditions: Tachedjian et al., 2001, PNAS, 7188-7193; cited from earlier work
WT p66/p66 RT = target: T1, WT p66/p66 RT (Human immunodeficiency virus type 1 group M subtype B, UniProt P04585); test: Inhibition of WT p66/p66 RT (data not shown); assay type: biochemical, HIV-1
T1 construct: IPTG-dependent expression of the non-HIS-tagged 66 kDa RT subunit; made in house; host or cells: E. coli JM109 (pKK-RT66WT)
Source text: The P2C/C38S/C280S p66/p66 RT chemically alkylated with the Eu-N1-iodoacetamido chelate retains approximately 80% of the RDDP activity of the unmodified protein (Table 1). […] Thus, the genetic and chemical manipulations of RT required to prepare reagents for the dimerization assay appear to have little effect on the response of the enzyme within the parameters of the assay protocol.

[2] = target: T2, unlabeled P2C/C38S/C280S p66/p66 RT (Human immunodeficiency virus type 1 group M subtype B, UniProt P04585, C625S/C867S/P588C); test: Inhibition of unlabeled P2C/C38S/C280S p66/p66 RT by HIV RT inhibitors; assay type: biochemical, HIV-1
T2 construct: made in house; host or cells: E. coli JM109 (pKK-RT66-P2C)

[3] = target: T3, Eu^3+-labeled P2C/C38S/C280S p66/p66 RT (Human immunodeficiency virus type 1 group M subtype B, UniProt P04585, C625S/C867S/P588C); test: Inhibition of Eu3+-labeled P2C/C38S/C280S p66/p66 RT by HIV RT inhibitors; assay type: biochemical, HIV-1; conditions: P2C/C38S/C280S p66/p66 RT alkylated with Eu-N1-iodoacetamido chelate
T3 construct: made in house; host or cells: E. coli JM109 (pKK-RT66-P2C), then chemical alkylation
Protocol: Purified P2C/C38S/C280S p66/p66 RT was concentrated to approximately 20 μM (˜2.5 mg/ml) in 50 mM Tris-HCl buffer (pH 7.9 at 20° C.) containing 100 mM NaCl and 1 mM TCEP-HCl (Tris(2-carboxyethyl)phosphine hydrochloride (Pierce)) at room temperature. An aliquot of Eu-N1-iodoacetamido chelate protein-modification reagent (prepared as a 5 mM stock solution in DMSO) was added to provide an approximately 20-fold molar excess relative to the p66 subunit concentration. The alkylation reaction was allowed to proceed for up to 6 hours at room temperature. Alternatively, the reaction may be carried out overnight at 4° C. Upon completion of the reaction, an excess of DTT was added to consume unreacted Eu-N 1-iodoacetamido chelate. The alkylated p66/p66 RT was separated from the DTT-reagent conjugate by two passages through a NAPT™ 25 column equilibrated with a 25 mM Tris-HCl buffer (pH 7.5, 20° C.) containing 60 mM MgCl2 and 50% glycerol. The stoichiometry of labeling was generally found to be between 0.7-1 mol of Eu-N1-iodoacetamide per mol of p66 RT subunit (i.e., 1.5-2 mol/mol p66/p66 RT homodimer).

With `Cc1cn([C@@H]2O[C@H](CO[Si](C)(C)C(C)(C)C)[C@@]3(OS(=O)(=O)C=C3N)[C@H]2O[Si](C)(C)C(C)(C)C)c(=O)n(C)c1=O` [TSAOm^3T] the “TRF signal relative to control (RT dimerization, FIG. 5B)” value [1] was “decreases the signal”.

In the case of `Cc1ccnc2c1NC(=O)c1cccnc1N2C1CC1` [Nevirapine], the “Effect on dimerization of the HIV-1 RT as reported” value (HIV-1 RT) is given as “chemical enhancers of dimerization”.

For `CCn1c(=O)c(C)cn([C@@H]2O[C@H](CO[Si](C)(C)C(C)(C)C)C3(OS(=O)(=O)C=C3N)[C@H]2O[Si](C)(C)C(C)(C)C)c1=O` (some centres unmarked) [TSAOe3T], the “Sensitivity of WT p66/p66 RT to inhibition compared with unmodified P2C/C38S/C280S p66/p66 mutant” value (WT p66/p66 RT) was “equally sensitive”, the IC50 [2] was 3000 nM and the IC50 [3] was 3000 nM.
